System: Hafnia alvei BCRC10906
Experiment: Influence of prebiotic compositions in different combinations on Hafnia alvei growth (OD600, Embodiment 4)
Assay type: cell-based
Conditions: for ability to promote the growth of Hafnia alvei (in words) / Relative bacterial count (%): 1 g formula in 10 mL BHI, 24 hours; for Absorbance (OD600): 10 mL BHI medium containing 1 g formula, anaerobic culture 37° C. 24 hours, control group 0.078 ± 0.039; for Relative bacterial count (%): converted from OD600, control group = 100 ± 50
From the text: The groups were divided into a control group and 11 experimental groups. The experimental groups included 6 single-formula experimental groups and 5 complex-formula experimental groups, namely a single-formula experimental group to a single-formula experimental group, and a complex-formula experimental group to a complex-formula experimental group. The adopted liquid medium was a brain heart infusion broth (BHI, hereinafter referred to as the BHI medium, and purchased from DifcoTM). The adopted test strains were Hafnia alvei BCRC10906 purchased from Bioresource Collection and Research Center (BCRC). Each group is shown as Table 5. Control group: No prebiotics were added, and the experimental medium was 10 ml of the BHI medium. 6 single-formula experimental groups: A single-formula experimental group containing erythritol (purchased from SWEET TOWN ENTERPRISE CORP.), a single-formula experimental group containing arabinose (purchased from […] Co., Ltd.), a single-formula experimental group containing Arabic gum (purchased from Buildmore Enterprise Co., Ltd.), a single-formula experimental group containing fructooligosaccharide (purchased from Panel Japan Co., Ltd.), a single-formula experimental group containing soybean peptide powder (purchased from FUJI OIL Co. Ltd.), and a single-formula experimental group containing the black tea ferment prepared in Embodiment 1. The experimental medium of each group was 10 ml of the BHI medium containing 1 g of prebiotics (namely, erythritol, arabinose, Arabic gum, fructooligosaccharide, soybean peptide powder, the black tea ferment prepared in Embodiment 1. The 6 single-formula experimental groups were also called single-ingredient formulas to [6]). 5 complex-formula experimental groups: A complex-formula experimental group containing the black tea ferment prepared in Embodiment 1 and the soybean peptide powder; a complex-formula experimental group containing the black tea ferment prepared in Embodiment 1, the soybean peptide powder and erythritol; a complex-formula experimental group containing the black tea ferment prepared in Embodiment 1, the soybean peptide powder and fructooligosaccharide; a complex-formula experimental group containing the black tea ferment prepared in Embodiment 1, the soybean peptide powder and arabinose; and a complex-formula experimental group containing the black tea ferment prepared in Embodiment 1, the soybean peptide powder and Arabic gum. The weight ratio of the prebiotic compositions of the complex-formula experimental groups was 1:1 or 1:1:1. The experimental medium of each group was 10 ml of the BHI medium containing 1 g of prebiotic composition (namely, a combination of 0.5 g of the black tea ferment prepared in Embodiment 1 and 0.5 g of the soybean peptide powder, a combination of about 0.33 g of the black tea ferment prepared in Embodiment 1, about 0.33 g of the soybean peptide powder and about 0.33 g of erythritol, a combination of about 0.33 g of the black tea ferment prepared in Embodiment 1, about 0.33 g of the soybean peptide powder and about 0.33 g of fructooligosaccharide , a combination of about 0.33 g of the black tea ferment prepared in Embodiment 1, about 0.33 g of the soybean peptide powder and about 0.33 g of arabinose, and a combination of about 0.33 g of the black tea ferment prepared in Embodiment 1, about 0.33 g of the soybean peptide powder and about 0.33 g of Arabic gum; and the 5 complex-formula experimental groups are also referred to as complex-ingredient formulas to [5]). [table] Firstly, 5% (v/v) of Hafnia alvei was inoculated to the BHI medium, and activated in an anaerobic operation box (5% of hydrogen, 10% of carbon dioxide and 85% of nitrogen) at 37° C. for 24 hours to obtain an experimental bacterial solution. […]

Compound | ability to promote the growth of Hafnia alvei (in words) | Absorbance (OD600) | Absorbance (OD600) (listed as single-formula experimental group [1]) | Relative bacterial count (%) | Absorbance (OD600) (listed as single-formula experimental group [2])
OC[C@@H](O)[C@@H](O)CO [Single-formula experimental group [1], Erythritol] | promoted the growth of Hafnia alvei | 0.169 ± 0.026 | 0.169±0.026 | 217 ± 34 | –
O=C[C@@H](O)[C@H](O)[C@H](O)CO [Single-formula experimental group [2], Arabinose] | promoted the growth of Hafnia alvei | 0.176 ± 0.038 | – | 226 ± 49 | 0.176±0.038

Source: patent publication US12691156B2, “Prebiotic compositions and method for promoting growth of Hafnia alvei by using the same” (TCI CO., LTD., priority 2022, dated 2026)
